For assay [1], the system named is SH3, SH2C and SH2N domains of the p85 subunit of PI3K. It is filed as binding.
For assay [2], the system named is PI3K/Akt. Type of assay: cell-based, human.
For assay [3], the system named is p85 subunit of PI3K. It is filed as binding, human.

“NS1: Wild-type nonstructural protein 1 of influenza A H1N1 Puerto Rico/8/34 (SEQ ID NO:2)”: in assay [1], the “interaction of NS1 alone with SH2C domain of p85” value is listed as “interacted”, the “interaction of NS1 alone with SH3 domain of p85” value is “interacted”, the “interaction of NS1 with SH2C domain of p85” value is listed as “precipitated NS1” and the “interaction of NS1 with SH3 domain of p85” value is reported as “precipitated NS1”. Besides, the “Akt phosphorylation in NS1 expressing cells compared with vector” value in assay [2] is on record as “greater degree of Akt phosphorylation”. The “precipitation of NS1 by p85 antibody” value in assay [3] is given as “did precipitate NS1 protein”.

The values are drawn from US7507411B2, “Attenuated influenza NS1 variants” (University of Saskatchewan, priority 2006, dated 2009).
